Measured values published in ChEMBL document CHEMBL1671629, “Penetration of chlorhexidine into human skin” (Antimicrob Agents Chemother, 2008).

Columns and labels:
Assay type in all cases: ADME, tissue-based
Zone of skin [1] = assay: Drug permeation in deeper <300 micrometer sections of human skin using Franz-cell skin model assessed as compound penetration per mg tissue exposed to 2% wt/vol of compound administered topically measured after 2 mins exposure by HPLC
Zone of skin [2] = assay: Drug permeation in top 100 micrometer sections of human skin using Franz-cell skin model assessed as compound penetration per mg tissue exposed to 2% wt/vol of compound administered topically measured after 24 hrs exposure by HPLC
Zone of skin [3] = assay: Drug permeation in deeper <300 micrometer sections of human skin using Franz-cell skin model assessed as compound penetration per mg tissue exposed to 2% wt/vol of compound administered topically measured after 24 hrs exposure by HPLC
Zone of skin [4] = assay: Drug permeation in deeper <300 micrometer sections of human skin using Franz-cell skin model assessed as compound penetration per mg tissue exposed to 2% wt/vol of compound administered topically measured after 30 mins exposure by HPLC; conditions: 0.5 h
Zone of skin [5] = assay: Drug permeation in top 100 micrometer sections of human skin using Franz-cell skin model assessed as compound penetration per mg tissue exposed to 2% wt/vol of compound administered topically measured after 2 mins exposure by HPLC
Zone of skin [6] = assay: Drug permeation in top 100 micrometer sections of human skin using Franz-cell skin model assessed as compound penetration per mg tissue exposed to 2% wt/vol of compound administered topically measured after 30 mins exposure by HPLC; conditions: 0.5 h

Question: For `N=C(NCCCCCCNC(=N)NC(=N)Nc1ccc(Cl)cc1)NC(=N)Nc1ccc(Cl)cc1.O=C(O)[C@H](O)[C@@H](O)[C@H](O)[C@H](O)CO`, which Drug uptake (Zone of skin [1]) is on record?
Answer: < 0.002 µg

Question: And the tissue concentration (Zone of skin [2])?
Answer: 7.88 µg/mg

Question: What about the Drug uptake (Zone of skin [3]) of the same compound?
Answer: < 1 µg

Question: What about the Drug uptake (Zone of skin [4]) of the same compound?
Answer: < 0.002 µg

Question: What about the tissue concentration (Zone of skin [5]) of the same compound?
Answer: 0.157 µg/mg

Question: And the tissue concentration (Zone of skin [6])?
Answer: 0.077 µg/mg
